The species named for test [1] is Homo sapiens. As to the kind of experiment: Selectivity index, ratio of IC50 for human recombinant CYP1A2 to IC50 for human recombinant CYP1B1 using 7-ethoxyresorufin as substrate in presence of glucose-6-phosphate, glucose-6-phosphate dehydrogenase and NADPH-generating system by fluorometry.
A further test deals with T1, Cytochrome P450 1A1 (Homo sapiens, UniProt P04798).
T1 sequence (P04798 whole entry): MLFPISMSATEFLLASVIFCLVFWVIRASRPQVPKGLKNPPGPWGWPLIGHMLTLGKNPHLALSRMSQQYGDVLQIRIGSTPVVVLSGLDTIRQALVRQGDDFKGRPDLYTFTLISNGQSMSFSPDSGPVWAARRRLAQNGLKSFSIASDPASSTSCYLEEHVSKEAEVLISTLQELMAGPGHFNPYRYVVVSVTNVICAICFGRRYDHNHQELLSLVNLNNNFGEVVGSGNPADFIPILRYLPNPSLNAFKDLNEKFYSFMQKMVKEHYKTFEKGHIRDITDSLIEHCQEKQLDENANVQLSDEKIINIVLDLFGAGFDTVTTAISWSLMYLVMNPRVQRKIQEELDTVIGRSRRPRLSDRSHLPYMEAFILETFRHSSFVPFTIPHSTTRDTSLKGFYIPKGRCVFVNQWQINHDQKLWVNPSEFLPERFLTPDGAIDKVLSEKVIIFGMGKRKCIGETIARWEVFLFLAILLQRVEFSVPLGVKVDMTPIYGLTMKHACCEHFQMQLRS
As to the kind of experiment: Inhibition of human recombinant CYP1A1 using 7-ethoxyresorufin as substrate in presence of glucose-6-phosphate, glucose-6-phosphate dehydrogenase and NADPH-generating system incubated for 15 mins by fluorometry. The class given is ADME.

In another test the target is T2, Cytochrome P450 1A2 (Homo sapiens, UniProt P05177).
T2 sequence (P05177 whole entry): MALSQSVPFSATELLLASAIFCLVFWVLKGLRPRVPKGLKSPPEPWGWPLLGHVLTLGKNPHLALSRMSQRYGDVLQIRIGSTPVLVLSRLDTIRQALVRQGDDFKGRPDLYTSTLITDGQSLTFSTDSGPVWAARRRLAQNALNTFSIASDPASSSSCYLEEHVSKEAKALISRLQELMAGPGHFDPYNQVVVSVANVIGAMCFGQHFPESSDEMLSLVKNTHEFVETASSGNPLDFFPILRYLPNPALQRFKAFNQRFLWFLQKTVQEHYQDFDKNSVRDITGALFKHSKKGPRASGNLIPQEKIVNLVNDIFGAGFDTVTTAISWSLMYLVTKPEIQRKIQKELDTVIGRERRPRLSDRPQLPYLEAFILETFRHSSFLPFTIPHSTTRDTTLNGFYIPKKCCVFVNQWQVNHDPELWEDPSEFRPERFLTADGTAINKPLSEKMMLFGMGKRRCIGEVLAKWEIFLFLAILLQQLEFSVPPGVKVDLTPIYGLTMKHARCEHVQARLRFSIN
In words: Inhibition of human recombinant CYP1A2 using 7-ethoxyresorufin as substrate in presence of glucose-6-phosphate, glucose-6-phosphate dehydrogenase and NADPH-generating system incubated for 50 mins by fluorometry. The class given is ADME.

A further test concerns the target T3, Cytochrome P450 1B1 (Homo sapiens, UniProt Q16678).
T3 sequence (Q16678 whole entry): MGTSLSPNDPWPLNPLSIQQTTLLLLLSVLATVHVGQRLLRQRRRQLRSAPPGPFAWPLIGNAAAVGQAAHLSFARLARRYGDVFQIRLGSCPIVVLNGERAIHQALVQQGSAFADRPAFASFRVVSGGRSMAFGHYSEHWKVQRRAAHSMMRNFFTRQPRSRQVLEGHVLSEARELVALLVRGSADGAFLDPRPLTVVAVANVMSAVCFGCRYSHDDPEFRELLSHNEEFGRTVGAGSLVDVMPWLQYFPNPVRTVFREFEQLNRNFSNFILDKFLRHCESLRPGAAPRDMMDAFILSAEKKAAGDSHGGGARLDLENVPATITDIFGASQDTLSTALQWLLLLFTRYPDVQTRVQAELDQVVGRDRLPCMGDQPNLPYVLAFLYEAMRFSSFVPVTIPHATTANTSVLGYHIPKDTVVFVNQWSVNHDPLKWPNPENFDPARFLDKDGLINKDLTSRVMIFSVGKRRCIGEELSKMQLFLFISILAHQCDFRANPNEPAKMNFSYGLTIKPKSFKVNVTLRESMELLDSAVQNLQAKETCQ
In words: Inhibition of human recombinant CYP1B1 using 7-ethoxyresorufin as substrate in presence of glucose-6-phosphate, glucose-6-phosphate dehydrogenase and NADPH-generating system incubated for 35 mins by fluorometry.

The species named for test [2] is Homo sapiens. In words: Selectivity index, ratio of IC50 for human recombinant CYP1A1 to IC50 for human recombinant CYP1B1 using 7-ethoxyresorufin as substrate in presence of glucose-6-phosphate, glucose-6-phosphate dehydrogenase and NADPH-generating system by fluorometry.

Drawing on ChEMBL document CHEMBL4376853, “Synthesis and structure-activity relationship studies of α-naphthoflavone derivatives as CYP1B1 inhibitors” (Eur J Med Chem, 2020), this text covers Ratio IC50 and IC50 for 16 molecules.

Broadly, the IC50 is the point on the concentration scale where inhibition reaches its midpoint.

Regarding `O/N=c1\cc(-c2cccc(Cl)c2)oc2c1ccc1ccccc12`, the figures for the Ratio IC50 in the test listed under Homo sapiens [1] and in the test listed under Homo sapiens [2] were 77.3 and 9.1, respectively. Also, the IC50 at Cytochrome P450 1A1 was found to be 0.0949 µM; on Cytochrome P450 1A2, 0.804 µM; on Cytochrome P450 1B1 it was 0.0104 µM.
On the same counts, the results for `O=c1cc(-c2cccnc2)oc2c1ccc1ccccc12` are 3.7, 4.1, 0.0253 µM, 0.0232 µM and 0.0062 µM.
As for `O=c1cc(-c2cccc(O)c2)oc2c1ccc1ccccc12`, the Ratio IC50 in the test filed under Homo sapiens [1] came out at 6.2; in the test listed under Homo sapiens [2], 3.6. Besides, the IC50 amounted to 0.0531 µM on Cytochrome P450 1A1, 0.0915 µM at Cytochrome P450 1A2 and 0.0148 µM on Cytochrome P450 1B1.
On the same counts, the results for `O=c1cc(-c2cccc(Cl)c2)sc2c1ccc1ccccc12` are 7.3, 0.3, 0.0136 µM, 0.296 µM and 0.0405 µM.
In the case of `O=c1cc(-c2ccc3ccccc3c2)oc2c1ccc1ccccc12`, the Ratio IC50 in the test filed under Homo sapiens [1] was > 20.7; in the test listed under Homo sapiens [2] it was 1. Further, the IC50 on Cytochrome P450 1A1 is 0.0464 µM; at Cytochrome P450 1A2, > 1 µM; at Cytochrome P450 1B1, 0.0484 µM.
On the same counts, the results for `O=c1cc(-c2ccc(F)c(F)c2)oc2c1ccc1ccccc12` are 5.1, 2.1, 0.0118 µM, 0.0286 µM and 0.0056 µM.
Regarding `O=C1C=C(c2cccc(Cl)c2)S(=O)(=O)c2c1ccc1ccccc21`, the results for the Ratio IC50 in the test filed under Homo sapiens [1] and in the test filed under Homo sapiens [2] were 2.8 and > 4, respectively. For the same molecule, the IC50 at Cytochrome P450 1A1 was > 1 µM; at Cytochrome P450 1A2, 0.699 µM; at Cytochrome P450 1B1, 0.25 µM.
On to `O=c1cc(-c2ccc(Cl)cc2)sc2c1ccc1ccccc12`, for which the Ratio IC50 in the test listed under Homo sapiens [1] stood at 4; in the test listed under Homo sapiens [2], 0.2. The concentration for half-maximal inhibition (IC50) came out at 0.009 µM at Cytochrome P450 1A1, 0.212 µM at Cytochrome P450 1A2 and 0.0519 µM at Cytochrome P450 1B1.
In the case of `O=c1cc(-c2ccccc2)sc2c1ccc1ccccc12`, the results for the Ratio IC50 in the test listed under Homo sapiens [1] and in the test filed under Homo sapiens [2] were > 17.5 and 0.6, respectively. Further, the results for the half-maximal inhibitory concentration (IC50) at Cytochrome P450 1A1, on Cytochrome P450 1A2 and on Cytochrome P450 1B1 were 0.0326 µM, > 1 µM and 0.057 µM, respectively.
As for `O=C1C=C(c2ccccc2)S(=O)(=O)c2c1ccc1ccccc21`, the Ratio IC50 in the test listed under Homo sapiens [1] is 0.8; in the test listed under Homo sapiens [2], 0.6. Also, the IC50 at Cytochrome P450 1A1 is 0.129 µM; at Cytochrome P450 1A2, 0.17 µM; on Cytochrome P450 1B1 it was 0.223 µM.
For the molecule `O=c1cc(-c2ccccc2F)oc2c1ccc1ccccc12`, the Ratio IC50 in the test filed under Homo sapiens [1] was found to be 7.2; in the test filed under Homo sapiens [2], 3.7. The half-maximal inhibitory concentration (IC50) at Cytochrome P450 1A1 turned out to be 0.0122 µM; on Cytochrome P450 1A2 it was 0.0237 µM; at Cytochrome P450 1B1, 0.0033 µM.
For `COc1cc(Cl)cc(-c2cc(=O)c3ccc4ccccc4c3o2)c1`, the figures for the IC50 on Cytochrome P450 1A1, at Cytochrome P450 1A2 and on Cytochrome P450 1B1 were 0.164 µM, > 1 µM and 0.0032 µM, respectively. Also, in the test listed under Homo sapiens [2], the Ratio IC50 came out at 51.2.
For the molecule `COc1cccc(-c2cc(=O)c3ccc4ccccc4c3o2)c1`, the results for the Ratio IC50 in the test listed under Homo sapiens [1] and in the test filed under Homo sapiens [2] were 46.8 and 9.4, respectively. Besides, the figures for the IC50 at Cytochrome P450 1A1, at Cytochrome P450 1A2 and at Cytochrome P450 1B1 were 0.0358 µM, 0.178 µM and 0.0038 µM, respectively.
In the case of `O=c1cc(-c2ccccn2)oc2c1ccc1ccccc12`, the Ratio IC50 in the test filed under Homo sapiens [1] worked out at 7.2; in the test listed under Homo sapiens [2] it was 10.8. The IC50 on Cytochrome P450 1A1 was 0.0379 µM; at Cytochrome P450 1A2 it was 0.0251 µM; at Cytochrome P450 1B1, 0.0035 µM.
Take `O/N=c1\cc(-c2ccc(Cl)cc2)oc2c1ccc1ccccc12`: the Ratio IC50 in the test listed under Homo sapiens [1] stood at 9.4; in the test filed under Homo sapiens [2], 5.6. Besides, the values for the IC50 at Cytochrome P450 1A1, at Cytochrome P450 1A2 and at Cytochrome P450 1B1 were 0.0444 µM, 0.0752 µM and 0.008 µM, respectively.
As for `O=c1cc(-c2ccc(F)cc2)oc2c1ccc1ccccc12`, the results for the Ratio IC50 in the test filed under Homo sapiens [1] and in the test listed under Homo sapiens [2] were 4.5 and 2.5, respectively. The figures for the concentration for half-maximal inhibition (IC50) on Cytochrome P450 1A1, at Cytochrome P450 1A2 and at Cytochrome P450 1B1 were 0.0067 µM, 0.0121 µM and 0.0027 µM, respectively.
